# In US20230322805A1, “NOVEL PYRIMIDODIAZEPINE DERIVATIVES OR USES THEREOF” (SPARK BIOPHARMA, INC., priority 2020, published 2023):
# Legend:
# [1] = test system: BiFC-tau Venus HEK293 cells (tau aggregation, hTau441); experiment: BiFC-tau Venus HEK293 cell assay monitoring tau aggregation under thapsigargin; format: cell-based, human
# Experimental: Phenotype-based screening to monitor tau assembly was performed using BiFC-tau Venus HEK293 cells in a high-throughput manner. Cells were seeded in 384-well plates at a density of 2.8×10^3 cells/well in 40 μL medium for 24 hours. Cells were treated with 80 nM thapsigargin (Sigma-Aldrich) in 10 μL medium and then ˜ 3,000 pDOS library compounds (10 μM), including compounds according to the present invention, using a 0.1 μL pinning tool. For knockdown experiments, cells were transfected with 5 or 10 nM siRNA using Lipofectamine RNAiMAX and incubated for 48 hours before thapsigargin treatment. […] Plates were scanned on an INCell Analyzer 2000 (GE Healthcare) at λex/λem=490/525 nm for Venus fluorescence (for the FITC channel) and λex/λem=350/455 nm for nuclei (for the DAPI channel). Bright-field images were taken to confirm cell morphology, and images were analyzed to quantify Venus intensity per cell using developer software (GE Healthcare).
# 1-1. According to the method described in Examples 1-15 above, the expression of Venus-based bimolecular fluorescence complemented-tau (BiFC-tau) was confirmed using HEK293 human embryonic kidney cells, thereby phenotyping the phenotype-based screening was performed.
# The N-terminal Venus (VN173) and C-terminal Venus (VC155) fragment sequences are fused with the full-length human tau (hTau441) sequence to form the BiFC-tau Venus HEK293 cell system. Soluble tau dimers can be measured by monitoring the turn-on/off signal of Venus fluorescence through co-expression of the two fused vectors, hTau441-VN173 and hTau441-VC1 55.
# As a stimulator of tau aggregation, thapsigargin (TG; an ER stress inducer), a direct inhibitor of sarco/endoplasmic reticulum Ca2^+-ATPase, was used. This disrupts calcium homeostasis. Thapsigargin treatment induces tau dimerization (tau aggregation), which can be confirmed by BiFC-tau Venus fluorescence turn-on.
# [2] = biological target: T1, PDIA3 (PDI reductase activity) (Homo sapiens, UniProt P30101); experiment: PEG maleimide modification assay of PDI oxidation state; format: cell-based; conditions: BiFC-tau HEK293 cells, 200 nM TG and 40 μM SB1617 for 3.5 hours, versus thapsigargin alone
# T1 construct: endogenous in cells; host or cells: HEK293 BiFC-tau cells (TS-FITGE, CETSA, PEG-maleimide assay)
# T1 sequence (P30101 25-505): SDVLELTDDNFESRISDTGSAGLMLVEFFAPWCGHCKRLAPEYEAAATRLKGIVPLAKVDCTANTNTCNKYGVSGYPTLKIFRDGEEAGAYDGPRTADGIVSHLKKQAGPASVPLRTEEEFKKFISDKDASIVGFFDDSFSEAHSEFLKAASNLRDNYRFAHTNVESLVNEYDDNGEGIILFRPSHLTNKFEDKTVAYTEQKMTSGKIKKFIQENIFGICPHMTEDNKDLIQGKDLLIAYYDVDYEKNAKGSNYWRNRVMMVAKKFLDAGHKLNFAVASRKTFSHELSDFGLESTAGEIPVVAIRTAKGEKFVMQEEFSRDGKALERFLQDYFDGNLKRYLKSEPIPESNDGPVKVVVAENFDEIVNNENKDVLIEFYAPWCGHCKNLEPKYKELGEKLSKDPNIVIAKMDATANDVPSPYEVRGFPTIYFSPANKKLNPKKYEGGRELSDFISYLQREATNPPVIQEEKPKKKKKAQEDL
# Experimental: Cysteine modification analysis using PEG maleimide was performed according to the paper (P. Kranz, F. Neumann, A. Wolf, F. Classen, M. Pompsch, T. Ocklenburg, J. Baumann, K. Janke, M. Baumann, K. Goepelt, H. Riffkin, E. Metzen, U. Brockmeier, PDI is an essential redox-sensitive activator of PERK during the unfolded protein response (UPR). Cell Death Dis. 8, e2986 (2017)).
# After compound treatment, BiFC-tau HEK293 cells were washed with cold PBS, incubated with 20 mM N-ethylmaleimide (NEM, Sigma Aldrich) in PBS for 20 minutes on ice to alkylate the reduced form of cysteine, and after washing with cold PBS, the cells were lysed in RIPA buffer. For whole cell analysis, the lysate was centrifuged at 200 g for 5 min at 4° C. to remove insoluble material. Protein concentration in the supernatant was analyzed by Pierce BCA Protein Assay Kit. Equal amounts of each lysate were treated with 12 mM tris(2-carboxyethyl)phosphine (TCEP, Sigma Aldrich) for 20 minutes at room temperature to reduce the form of oxidized PDI. Lysates were incubated with 15 mM methoxy polyethylene glycol 5000 maleimide (mPEG-mal5000, Sigma Aldrich) for 1 hour at room temperature. […]
# 3-2. […] Maleimides with two different molecular weights allow the bands of oxidized and reduced forms of PDI to be readily separated by electrophoresis.
compound,measurement,setting,value
CN(Cc1ccc(Cl)cc1)c1ncnc2c1[C@@H]1OC[C@H](CN2)N1S(=O)(=O)c1ccc([N+](=O)[O-])cc1 [Compound 117],BiFC-Venus fluorescence induced by thapsigargin (FITC channel image),"[1]; 10 μM SB1617 with 80 nM thapsigargin, 24 hours",suppresses BiFC-Venus fluorescence
same,IC50,"[1]; Homo sapiens, HEK293, inhibition of BiFC-tau Venus fluorescence, 80 nM thapsigargin, table head prints no unit, μM, read-out: BiFC-tau intensity (IC50)",1.9 µM
same,activity at 10 µM,"[1]; Homo sapiens, HEK293-BiFC-tau-Venus cells co-treated with 10 μM compound and 80 nM thapsigargin for 24 hours, read-out: BiFC-tau intensity (%)",36%
same,change in Venus fluorescence intensity,[1]; various concentrations with 80 nM TG for 20 hours,dose dependent
same,oxidation state of PDI,[2],significantly converted from the reduced form to the oxidized form
